In article PMC8566587, “Selection for constrained peptides that bind to a single target protein” (Nature Communications, 2021):
Where a SMILES comes first, the peptide text is derived from it.

Experiments:
[1] = target: SARS-CoV-2 Spike RBD (RBD296-531) (Severe acute respiratory syndrome coronavirus 2, UniProt P0DTC2); experiment: biochemical; type: binding
[2] = cited from earlier work
Excerpt: The genetic circuit is based on a split intein and σ factor to which the peptide library is fused. This could be used to screen/select libraries of linear peptides or protein domains for binding to the target. Here, we decided to use modified peptides because they have advantages as pharmaceuticals, including more compact structures that are resistant to proteolysis and permeate the mammalian cell membrane. Modified peptides have been approved for the treatment of cancer, inflammation, and infection and increasing numbers are entering all phases of clinical development for diverse indicatio ...

[3] = tested on: Spike RBD; type: cell-based, SARS-CoV-2

CC[C@H](C)[C@H](NC(=O)[C@H]1NC(=O)[C@H](C(C)C)NC(=O)[C@H]([C@@H](C)CC)NC(=O)[C@H](CCC(=O)O)NC(=O)[C@@H](NC(=O)[C@H](Cc2c[nH]c3ccccc23)NC(=O)[C@H](CCC(=O)O)NC(=O)CNC(=O)[C@H](Cc2ccc(O)cc2)NC(=O)[C@H](CCCCN)NC(=O)[C@H](CS)NC(=O)[C@@H](NC(=O)CN)C(C)C)CSC1CC(=O)O)C(=O)O (stereo partly shown) [AMK-1057] (HELM PEPTIDE1{G.V.C.K.Y.G.E.W.C.E.I.V.[O=C(O)CC([C@H](N[*:1])C(=O)[*:2])[*:3]].I}$PEPTIDE1,PEPTIDE1,9:R3-13:R3$$$V2.0)
Kd [1]: 990 ± 5 nM

Enfuvirtide
proteolysis (in words) [2]: suffers from rapid proteolysis

VCKYGEWCEIVEI [Pap2c_1]
fluorescence output (in words) [3]: strong fluorescence output
specificity for Spike RBD as compared to Mdm2* [3]: 14 fold
